Assay results: patent publication US12440496B2, “Natriuretic peptide receptor a agonists useful for the treatment of cardiometabolic diseases, kidney disease and diabetes” (Merck Sharp & Dohme LLC, priority 2019, dated 2025)
Structures can show the parent of a compound that is named as a salt.

Molecular target: T1, hNPRA (Homo sapiens, UniProt P16066)
T1 construct: expressed in transfected cells
T1 sequence (P16066 33-1061): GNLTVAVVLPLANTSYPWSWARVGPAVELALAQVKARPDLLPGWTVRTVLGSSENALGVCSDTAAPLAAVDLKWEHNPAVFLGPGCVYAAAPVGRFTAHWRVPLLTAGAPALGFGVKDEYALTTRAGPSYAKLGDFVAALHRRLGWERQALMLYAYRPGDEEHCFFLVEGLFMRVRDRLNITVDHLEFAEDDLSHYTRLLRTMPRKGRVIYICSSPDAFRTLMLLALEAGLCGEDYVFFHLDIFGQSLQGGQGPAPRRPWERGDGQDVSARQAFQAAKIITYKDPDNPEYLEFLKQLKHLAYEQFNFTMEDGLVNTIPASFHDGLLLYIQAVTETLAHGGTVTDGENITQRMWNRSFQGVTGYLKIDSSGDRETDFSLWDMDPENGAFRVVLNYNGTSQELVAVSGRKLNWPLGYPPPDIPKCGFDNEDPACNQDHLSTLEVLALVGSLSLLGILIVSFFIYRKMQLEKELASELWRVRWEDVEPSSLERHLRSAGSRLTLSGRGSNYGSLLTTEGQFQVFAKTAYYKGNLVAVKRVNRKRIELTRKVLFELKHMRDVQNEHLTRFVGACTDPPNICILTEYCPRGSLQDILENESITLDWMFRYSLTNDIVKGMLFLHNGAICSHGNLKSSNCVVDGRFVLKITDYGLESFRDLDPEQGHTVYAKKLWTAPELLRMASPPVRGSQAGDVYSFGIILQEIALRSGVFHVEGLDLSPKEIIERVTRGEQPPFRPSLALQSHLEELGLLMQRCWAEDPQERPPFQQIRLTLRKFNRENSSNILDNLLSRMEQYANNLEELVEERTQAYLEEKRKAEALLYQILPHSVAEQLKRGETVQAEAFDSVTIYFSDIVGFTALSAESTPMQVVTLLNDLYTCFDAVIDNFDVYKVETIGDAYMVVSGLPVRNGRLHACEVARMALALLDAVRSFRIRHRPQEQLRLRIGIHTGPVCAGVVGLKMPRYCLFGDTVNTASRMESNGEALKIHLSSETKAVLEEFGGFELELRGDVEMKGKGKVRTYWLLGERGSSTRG
Experiment: NPRA Functional Cell Assay (cGMP HTRF, NPRA HEK JumpIn stable cells)
Type: cell-based
Conditions: cGMP production, 1 hour at 37° C., 10-point dose response
In short: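 cGMP HTRF read-out after 1 hour compound treatment at 37° C. of human NPRA-expressing HEK JumpIn cells, 1500 cells/well, in buffer with phosphodiesterase inhibitors IBMX and RO20 (100 uM each). Signal converted to [cGMP] by calibration curve; EC50s fitted by 4-parameter logistic; 50 nM h-ANP as positive response.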

`CN1CC(NC(=O)c2cccc([C@@H](CCN3CC4C(C3)C4C(=O)O)NC(=O)c3nc4cc5c(nc4s3)CC[C@H](C(C)(C)C)C5)c2)C1` (mixture of isomers) [Example 108, 3-[rac-(3R)-3-[3-[(1-methylazetidin-1-ium-3-yl)carbamoyl]phenyl]-3-[[rac-(7S)-7-tert-butyl-5,6,7,8-tetrahydrothiazolo [5,4-b]quinoline-2-carbonyl]amino]propyl]-3-azabicyclo[3.1.0]hexane-6-carboxylic acid; 2,2,2-trifluoroacetate] and `CN1CC(NC(=O)c2cccc([C@@H](CCN3CCC(C(=O)O)C3)NC(=O)c3nc4cc5c(nc4s3)CC[C@H](C(C)(C)C)C5)c2)C1` (mixture of isomers) [Example 112, rac-(3R)-1-[rac-(3R)-3-[3-[(1-methylazetidin-1-ium-3-yl)carbamoyl]phenyl]-3-[rac-(7S)-7-tert-butyl-5,6,7,8-tetrahydrothiazolo[5,4-b]quinoline-2-carbonyl]amino]propyl]pyrrolidine-3-carboxylic acid; 2,2,2-trifluoroacetate] are within 1.5-fold of each other in EC50: 0.621 µM for the first, 0.754 µM for the second.

`COC1CCN(CC[C@@H](NC(=O)c2nc3cc4c(nc3s2)CC[C@H](C(C)(C)C)C4)c2cccc(C(=O)NC3CN(C)C3)c2)CC1` (racemic) [Example 109, rac-(7S)-7-tert-butyl-N-[rac-(1R)-3-(4-methoxy-1-piperidyl)-1-[3-[(1-methylazetidin-1-ium-3-yl)carbamoyl]phenyl]propyl]-5,6,7,8-tetrahydrothiazolo[5,4-b] quinoline-2-carboxamide; 2,2,2-trifluoroacetate] and `COC(=O)C1CCN(CC[C@@H](NC(=O)c2nc3cc4c(nc3s2)CC[C@H](C(C)(C)C)C4)c2cccc(C(=O)NC3CN(C)C3)c2)CC1` (racemic) [Example 114, methyl 1-[rac-(3R)-3-[3-[(1-methylazetidin-1-ium-3-yl)carbamoyl]phenyl]-3-[[rac-(7S)-7-tert-butyl-5,6,7,8-tetrahydrothiazolo[5,4-b]quinoline-2-carbonyl]amino]propyl] piperidine-4-carboxylate; 2,2,2-trifluoroacetate] are within 1.5-fold of each other in EC50: 0.629 µM for the first, 0.671 µM for the second.

`COC(=O)CC1CCN(CC[C@@H](NC(=O)c2nc3cc4c(nc3s2)CC[C@H](C(C)(C)C)C4)c2cccc(C(=O)NC3CN(C)C3)c2)CC1` (racemic) [Example 110, methyl 2-[1-[rac-(3R)-3-[3-{(1-methylazetidin-1-ium-3-yl)carbamoyl]phenyl]-3-[rac-(7S)-7-tert-butyl-5,6,7,8-tetrahydrothiazolo[5,4-b]quinoline-2-carbonyl]amino]propyl]-4-piperidyl]acetate; 2,2,2-trifluoroacetate] and `CN1CC(NC(=O)c2cccc([C@@H](CCN3CC[C@H](C(=O)O)C3)NC(=O)c3nc4cc5c(nc4s3)CC[C@H](C(C)(C)C)C5)c2)C1` (racemic) [Example 113, rac-(3S)-1-[rac-(3R)-3-[3-[(1-methylazetidin-1-ium-3-yl)carbamoyl]phenyl]-3-[[rac-(7S)-7-tert-butyl-5,6,7,8-tetrahydrothiazolo[5,4-b]quinoline-2-carbonyl]amino]propyl]pyrrolidine-3-carboxylic acid; 2,2,2-trifluoroacetate] are within 1.5-fold of each other in EC50: 0.632 µM for the first, 0.939 µM for the second.

Going from `CN(CCC(=O)O)CC[C@@H](NC(=O)c1nc2cc3c(nc2s1)CC[C@H](C(C)(C)C)C3)c1cccc(C(=O)NC2CN(C)C2)c1` (racemic) [Example 111, 3-[methyl-[rac-(3R)-3-[3-[(1-methylazetidin-1-ium-3-yl)carbamoyl]phenyl]-3-[[rac-(7S)-7-tert-butyl-5,6,7,8-tetrahydrothiazolo[5,4-b]quinoline-2-carbonyl]amino]propyl]amino] propanoic acid; 2,2,2-trifluoroacetate] to `CN1CC(NC(=O)c2cccc([C@@H](CCNCC(=O)O)NC(=O)c3nc4cc5c(nc4s3)CC[C@H](C(C)(C)C)C5)c2)C1` (racemic) [Example 115, carboxymethyl-[rac-(3R)-3-[3-[(1-methylazetidin-3-yl)carbamoyl]phenyl]-3-[rac-(7S)-7-tert-butyl-5,6,7,8-tetrahydrothiazolo[5,4-b]quinoline-2-carbonyl]amino]propyl]ammonium; 2,2,2-trifluoroacetate], the EC50 rises from 0.645 µM to 1.41 µM (2.2-fold). The first is the more potent here.

`CC(C)(C)[C@H]1CCc2nc3sc(C(=O)N[C@H](CCN4CCC(O)CC4)c4cccc(N5CC6(CCNCC6)OC5=O)c4)nc3cc2C1` (racemic) [Example 116, rac-(7S)-7-tert-butyl-N-[rac-(1R)-3-(4-hydroxy-1-piperidyl)-1-[3-(2-oxo-1-oxa-3-aza-8-azoniaspiro [4.5]decan-3-yl)phenyl]propyl]-5,6,7,8-tetrahydrothiazolo[5,4-b] quinoline-2-carboxamide; 2,2,2-trifluoroacetate] and `CC(C)(C)[C@H]1CCc2nc3sc(C(=O)N[C@H](CCN4CCC(O)CC4)c4cccc(N5CCNC5=O)c4)nc3cc2C1` (racemic) [Example 117, rac-(7S)-7-tert-butyl-N-[rac-(1R)-3-(4-hydroxypiperidin-1-ium-1-yl)-1-[3-(2-oxoimidazolidin-1-yl)phenyl]propyl]-5,6,7,8-tetrahydrothiazolo[5,4-b] quinoline-2-carboxamide; 2,2,2-trifluoroacetate] are within 1.5-fold of each other in EC50: 0.622 µM for the first, 0.795 µM for the second.

`CC(C)(C)[C@H]1CCc2nc3sc(C(=O)N[C@H](CCN4CCC(O)CC4)c4cccc(NC(=O)C5CCNC5)c4)nc3cc2C1` (mixture of isomers) [Example 118, rac-(7S)-7-tert-butyl-N-[rac-(1R)-3-(4-hydroxy-1-piperidyl)-1-[3-(pyrrolidin-1-ium-3-carbonylamino)phenyl]propyl]-5,6,7,8-tetrahydrothiazolo[5,4-b] quinoline-2-carboxamide; 2,2,2 trifluoroacetate] and `CC(C)(C)[C@H]1CCc2nc3sc(C(=O)N[C@H](CCN4CCC(O)CC4)c4cccc(NC(=O)CCN)c4)nc3cc2C1` (racemic) [Example 119, [3-oxo-3-[3-[rac-(1R)-3-(4-hydroxy-1-piperidyl)-1-[[rac-(7S)-7-tert-butyl-5,6,7,8-tetrahydrothiazolo [5,4-b]quinoline-2-carbonyl]amino]propyl]anilino]propyl]ammonium; 2,2,2-trifluoroacetate] are within 1.5-fold of each other in EC50: 0.985 µM for the first, 1.21 µM for the second.

Compared with `CC(C)(C)[C@H]1CCc2nc3sc(C(=O)N[C@H](CCN4CCC(O)CC4)c4cccc(N5CCOC5=O)c4)nc3cc2C1` (racemic) [Example 120, rac-(7S)-7-tert-butyl-N-[rac-(1R)-3-(4-hydroxypiperidin-1-ium-1-yl)-1-[3-(2-oxooxazolidin-3-yl)phenyl]propyl]-5,6,7,8-tetrahydrothiazolo[5,4-b] quinoline-2-carboxamide; 2,2,2-trifluoroacetate], `CC(C)(C)[C@H]1CCc2nc3sc(C(=O)N[C@H](CCN4CCC(C(=O)O)CC4)c4cccc(C(=O)NC5CNC5)c4)nc3cc2C1` (racemic) [Example 122, 1-[rac-(3R)-3-[3-(azetidin-1-ium-3-ylcarbamoyl)phenyl]-3-[rac-(7S)-7-tert-butyl-5,6,7,8-tetrahydrothiazolo [5,4-b]quinoline-2-carbonyl]amino]propyl] piperidine-4-carboxylic acid; 2,2,2-trifluoroacetate] is 2.6-fold lower in EC50: 1.67 µM for the first, 0.637 µM for the second. The second is the more potent here.

Going from `CN1CCC(NC(=O)c2cccc([C@@H](CCN3CCC(C(=O)O)CC3)NC(=O)c3nc4cc5c(nc4s3)CC[C@H](C(C)(C)C)C5)c2)C1` (mixture of isomers) [Example 121, 1-[rac-(3R)-3-[3-[(1-methylpyrrolidin-3-yl)carbamoyl]phenyl]-3-[[rac-(7S)-7-tert-butyl-5,6,7,8-tetrahydrothiazolo [5,4-b]quinoline-2-carbonyl]amino]propyl]piperidine-4-carboxylic acid] to `CC(C)(C)[C@H]1CCc2nc3sc(C(=O)N[C@H](CCN4CCC(C(=O)O)CC4)c4cccc(C(=O)NC5CN(Cc6ccccc6)C5)c4)nc3cc2C1` (racemic) [Example 123, 1-[rac-(3R)-3-[3-{(1-benzylazetidin-3-yl)carbamoyl]phenyl]-3-[[rac-(7S)-7-tert-butyl-5,6,7,8-tetrahydrothiazolo [5,4-b]quinoline-2-carbonyl]amino]propyl] piperidin-1-ium-4-carboxylic acid; 2,2,2-trifluoroacetate], the EC50 rises from 0.224 µM to 0.657 µM (2.9-fold). The first is the more potent here.
